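These data come from cells grown in 96-well plates and exposed to compound for 48 hours at five concentrations. At the GI50, growth is halved.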 Activity calls are given as the source filed them. Cut-off read from the data, not from the text of the source: active = GI50 up to about 1.1 µM and inactive = higher.
Legend:
Experiment in all cases: NCI-60 cell line screen, 48 h
DLD-1 = system: DLD-1
DMS-114 = system: DMS-114
DMS-273 = system: DMS-273
HOP-18 = system: HOP-18
KM-20L2 = system: KM-20L2
LXFL 529 = system: LXFL 529
SNB-78 = system: SNB-78
XF498 = system: XF498
RXF 631 = system: RXF 631

SMILES	GI50 (DLD-1)	GI50 (DMS-114)	GI50 (DMS-273)	GI50 (HOP-18)	GI50 (KM-20L2)	GI50 (LXFL 529)	GI50 (SNB-78)	GI50 (XF498)	GI50 (RXF 631)
COc1cc(C)c(O)c(C(=O)O)c1	> 100 µM (inactive)	> 100 µM (inactive)	> 100 µM (inactive)	> 100 µM (inactive)	> 100 µM (inactive)	> 100 µM (inactive)	> 100 µM (inactive)	> 100 µM (inactive)	–
Cc1nc(N)sc1C(=O)/C=C\c1ccc2c(c1)OCO2	> 100 µM (inactive)	> 100 µM (inactive)	> 100 µM (inactive)	> 100 µM (inactive)	> 100 µM (inactive)	> 100 µM (inactive)	> 100 µM (inactive)	> 100 µM (inactive)	> 100 µM (inactive)
C=CC1(NS(=O)(=O)c2ccc(C)cc2)CCC(C(C)(C)C)CC1 (stereo not given)	> 100 µM (inactive)	27 µM (inactive)	43.5 µM (inactive)	37.5 µM (inactive)	> 100 µM (inactive)	99.5 µM (inactive)	30.7 µM (inactive)	–	–
NC(=O)CC(N/C=C1/N=C(c2ccccc2)OC1=O)C(=O)O (stereo not given)	> 100 µM (inactive)	> 100 µM (inactive)	> 100 µM (inactive)	> 100 µM (inactive)	> 100 µM (inactive)	> 100 µM (inactive)	> 100 µM (inactive)	–	> 100 µM (inactive)
COc1ccc(/C=C2\C(=O)N(NC(C)=O)c3ccccc32)cc1	68.4 µM (inactive)	77.3 µM (inactive)	99.1 µM (inactive)	> 100 µM (inactive)	> 100 µM (inactive)	–	> 100 µM (inactive)	> 100 µM (inactive)	> 100 µM (inactive)
CN(CCCCN)c1ccc2c(=O)[nH][nH]c(=O)c2c1	> 100 µM (inactive)	> 100 µM (inactive)	> 100 µM (inactive)	> 100 µM (inactive)	–	> 100 µM (inactive)	> 100 µM (inactive)	> 100 µM (inactive)	> 10 µM (inactive)
Cc1cc(C)c(C2[C@H]3C(=O)N(c4ccc(Cc5ccc(N6C(=O)[C@@H]7ON(c8ccccc8)C(c8c(C)cc(C)cc8C)[C@@H]7C6=O)cc5)cc4)C(=O)[C@H]3ON2c2ccccc2)c(C)c1 (stereo not given in full)	> 100 µM (inactive)	> 100 µM (inactive)	> 100 µM (inactive)	> 100 µM (inactive)	> 100 µM (inactive)	> 100 µM (inactive)	> 100 µM (inactive)	–	> 100 µM (inactive)
CN1N=C2NCCNC3=NN(C)/C(=N/CC/N=C/1S2)S3	> 100 µM (inactive)	–	> 100 µM (inactive)	> 100 µM (inactive)	> 100 µM (inactive)	> 100 µM (inactive)	> 100 µM (inactive)	–	–
COc1cccc2c1C(=O)c1c(O)c3c(c(O)c1C2=O)C[C@@](O)(C(C)=O)C[C@@H]3OC1CC([N+]([O-])(Cc2ccccc2)Cc2ccccc2)C(O)C(C)O1 (stereo not given in full)	1.29 µM (inactive)	1.33 µM (inactive)	–	1.58 µM (inactive)	1.55 µM (inactive)	1.11 µM (active)	–	1.23 µM (inactive)	0.428 µM (active)
NC(CCCNc1cccc(O)c1)C(=O)O (stereo not given)	> 100 µM (inactive)	> 100 µM (inactive)	> 100 µM (inactive)	> 100 µM (inactive)	> 100 µM (inactive)	> 100 µM (inactive)	> 100 µM (inactive)	–	–
CC1(C)C(c2ccccc2)=NN(O)c2ccccc21	> 100 µM (inactive)	–	> 100 µM (inactive)	> 100 µM (inactive)	> 100 µM (inactive)	> 100 µM (inactive)	> 100 µM (inactive)	–	–
O=C1c2ccccc2C2CCC1c1ccccc12 (stereo not given)	33.5 µM (inactive)	19.4 µM (inactive)	27.4 µM (inactive)	73.6 µM (inactive)	32.8 µM (inactive)	36.3 µM (inactive)	29.9 µM (inactive)	29.5 µM (inactive)	–
CC(=O)OC(CCC1(C)OC1COc1ccc(CCNC(=O)c2ccccc2)cc1)C(C)(C)OC(C)=O (stereo not given)	45 µM (inactive)	0.325 µM (active)	11 µM (inactive)	> 100 µM (inactive)	30.1 µM (inactive)	10.3 µM (inactive)	36.2 µM (inactive)	–	–
CCN(CC)CCC1CC/C(=C\c2ccc(OC)cc2)C1=O (stereo not given)	> 100 µM (inactive)	38.6 µM (inactive)	> 100 µM (inactive)	> 100 µM (inactive)	30.3 µM (inactive)	58.5 µM (inactive)	81.1 µM (inactive)	49.8 µM (inactive)	–
Cc1ccc(/C=C/C(=O)CCN(C)C)cc1	18.1 µM (inactive)	18.3 µM (inactive)	13 µM (inactive)	20.7 µM (inactive)	18.3 µM (inactive)	19.4 µM (inactive)	28.6 µM (inactive)	14.2 µM (inactive)	–
COC(=O)C(C#N)=C1c2ccccc2Oc2ccccc21	> 100 µM (inactive)	32.7 µM (inactive)	> 100 µM (inactive)	–	91.2 µM (inactive)	29.8 µM (inactive)	28.6 µM (inactive)	> 100 µM (inactive)	–
O=C1C(=Cc2ccc([N+](=O)[O-])o2)C(=O)N(CCc2ccccc2)S(=O)(=O)N1CCc1ccccc1	17.6 µM (inactive)	–	32.7 µM (inactive)	42.2 µM (inactive)	> 100 µM (inactive)	16.8 µM (inactive)	26.1 µM (inactive)	20.4 µM (inactive)	–
CC(C)(c1ccccc1)c1ccc(OC#N)cc1	> 44.5 µM (inactive)	28.4 µM (inactive)	17 µM (inactive)	> 100 µM (inactive)	> 60.3 µM (inactive)	> 78.3 µM (inactive)	> 100 µM (inactive)	44.6 µM (inactive)	–
C=C[C@@]1(O)CCCC2=C(C(=O)OCC)CC[C@]21C	> 100 µM (inactive)	44 µM (inactive)	37.5 µM (inactive)	99.8 µM (inactive)	–	> 100 µM (inactive)	–	–	–
CC(C)Cc1cc(CCC(=O)Nc2ccccc2[N+](=O)[O-])nc(NC#N)n1	> 100 µM (inactive)	> 100 µM (inactive)	–	> 100 µM (inactive)	> 100 µM (inactive)	> 100 µM (inactive)	–	> 100 µM (inactive)	–
Nc1ccccc1Nc1ccccc1C(=O)[O-].Nc1ccccc1Nc1ccccc1C(=O)[O-].[Zn+2]	–	–	–	–	> 100 µM (inactive)	–	–	28.1 µM (inactive)	–
C[C@]1(CO)CCC[C@@]2(C)C1CC[C@H]1CC3C[C@]12CC[C@]3(C)O (stereo not given in full)	32.4 µM (inactive)	40.2 µM (inactive)	> 100 µM (inactive)	–	> 100 µM (inactive)	2.86 µM (inactive)	27.1 µM (inactive)	47.1 µM (inactive)	42.3 µM (inactive)
CCOC(=O)Oc1c(OC)cc(C(=O)NC2CCc3cc(OC)c(OC)c(OC)c3-c3ccc(SC)c(=O)cc32)cc1OC (stereo not given)	0.0723 µM (active)	0.0261 µM (active)	< 0.007 µM (active)	–	0.0853 µM (active)	0.0386 µM (active)	0.0489 µM (active)	0.0681 µM (active)	–
O=C1CCCN(c2ccccc2)N1	–	> 100 µM (inactive)	> 100 µM (inactive)	–	> 100 µM (inactive)	> 100 µM (inactive)	–	–	> 100 µM (inactive)
COc1cc2c[n+](C)c3c4cc(OC)c(OC)cc4c(OCCCCCCCCOc4cc5c6cc(OC)c(OC)cc6c[n+](C)c5c5cc(OC)c(OC)cc45)cc3c2cc1OC	> 100 µM (inactive)	22.1 µM (inactive)	20 µM (inactive)	> 100 µM (inactive)	80 µM (inactive)	> 100 µM (inactive)	> 100 µM (inactive)	> 100 µM (inactive)	–
O=C1c2ccccc2C(=O)c2c1cc(S(=O)(=O)O)c(O)c2O [Alizarin Red S]	> 100 µM (inactive)	> 100 µM (inactive)	–	–	–	> 100 µM (inactive)	> 100 µM (inactive)	16.7 µM (inactive)	> 100 µM (inactive)
CN1C(=O)C(=O)c2cc3c(c4c2c1cc1ccccc14)OCO3 [CEPHARADIONE A]	31.2 µM (inactive)	31.6 µM (inactive)	22.9 µM (inactive)	42.9 µM (inactive)	39.4 µM (inactive)	30.8 µM (inactive)	7.83 µM (inactive)	> 100 µM (inactive)	–

Reference: ChEMBL document CHEMBL1201862, “PubChem BioAssay data set” (2004)
